Measurements as given in patent US5098888A, “New heterocyclic tripeptide compounds” (Adir et Compagnie, priority 1989, dated 1992).

What was measured:
Assay type in all cases: in vivo
mice [1] = assay: Oxotremorine-induced tremor in mice
[2] = tested on: synaptosomal high-affinity choline uptake (HACU); assay: Barbiturate-induced cholinergic deficit in rats
Excerpt: This sodium-dependent uptake normally constitutes the limiting factor in acetyl choline synthesis.

mice [3] = assay: Interaction with clonidine (cerebral survival time on sudden cardiac arrest caused by MgCl2); settings: for antagonism of the effect of clonidine: simultaneously with clonidine

Cn1cnc(C[C@H](NC(=O)[C@@H]2CCC(=O)N2)C(=O)N2[C@H]3CC[C@H](C3)[C@H]2C(N)=O)c1 [Example 1, (S)PyroGlu-(S)(N^.tau. -Me)His-(1S,3S,4R)ABH-NH2]
induction of tremor by the compound itself (mice [1]; 10 mg/kg ip): without itself inducing tremor

NC(=O)[C@@H]1CCCN1C(=O)[C@H](Cc1c[nH]cn1)NC(=O)[C@@H]1CCC(=O)N1 [TRH, pyroglutamylhistidylprolinamide]
inhibition of narcosis ([2]; 10 mg/kg ip simultaneously with pentobarbital): does not inhibit the narcosis
counteraction/inhibition of the fall in HACU induced by the barbiturate ([2]; 10 mg/kg ip simultaneously with pentobarbital 60 mg/kg ip, HACU measured after 20 minutes of narcosis): -35%
boosting of the tremor (mice [1]; 3 mg/kg ip): no longer apparent
boosting of the tremor (mice [1]; 10 mg/kg ip 30 minutes before oxotremorine 0.5 mg/kg ip, measured at peak of action): +90%
boosting of the tremor (mice [1]; administered orally (Example 1: 10 mg/kg)): no boosting effect
boosting effect in the presence of scopolamine (mice [1]; scopolamine 0.01 mg/kg): persists
antagonism of the effect of clonidine (mice [3]; 1 mg/kg ip): -20%
antagonism of the effect of clonidine (mice [3]; 3 mg/kg ip): -80%
effect on its own in the test (mice [3]; without clonidine): without having an effect on its own

Clc1cccc(Cl)c1N=C1NCCN1 [clonidine]
increase in the cerebral survival time (mice [3]; sudden cardiac arrest caused by intravenous MgCl2): +60%

CCCC(C)C1(CC)C(=O)NC(=O)NC1=O (stereo not drawn) [pentobarbital]
fall in synaptosomal high-affinity choline uptake (HACU) ([2]; 60 mg/kg ip, after 20 minutes of narcosis): -48%
